Source: ChEMBL document CHEMBL4033705, “Screening for bioactive natural products from a 67-compound library of Glycyrrhiza inflata” (Bioorg Med Chem, 2017)
One block for each compound: values may come before it. Where a SMILES comes first, the peptide text is derived from it. The star is where a group is joined. Cbz = O=C(OCc1ccccc1)*

Key:
Homo sapiens [1] = species on record: Homo sapiens; assay: Inhibition of LPS-induced NF-kappaB transcription (unknown origin) expressed in human SW480 cells at 20 uM by luciferase reporter gene assay; type: cell-based
RAW264.7 [2] = assay: Antiinflammatory activity in mouse RAW264.7 cells assessed as inhibition of LPS-induced NO production at 20 uM after 24 hrs by Griess reagent based assay relative to control; type: functional; details: RAW264.7, 24 h
[3] = (§1) Growth inhibition of human HEK293T cells at 10 uM after 24 hrs by MTS assay relative to control; type: cell-based, HEK-293T; details: HEK293T cells, read-out: GI
HEK-293T = assay: as §1; type: cell-based; details: hek-293t, 24 h, 10 µM
[4] = (§2) Growth inhibition of human LO2 cells at 10 uM after 24 hrs by MTS assay relative to control; type: cell-based, L02; details: LO2 cells, read-out: GI
L02 = assay: as §2; type: cell-based; details: l02, 24 h, 10 µM
MCF7 [5] = assay: Cytotoxicity against human MCF7 cells assessed as reduction in cell viability after 24 hrs by MTS assay; type: functional, cell-based; details: MCF7, 24 h
SW480 [6] = assay: Cytotoxicity against human SW480 cells assessed as reduction in cell viability after 24 hrs by MTS assay; type: functional, cell-based; details: SW480, 24 h
HepG2 [7] = assay: Cytotoxicity against human HepG2 cells assessed as reduction in cell viability after 24 hrs by MTS assay; type: functional, cell-based; details: HepG2, 24 h
MCF7 [8] = assay: Growth inhibition of human MCF7 cells at 10 uM after 24 hrs by MTS assay relative to control; type: functional; details: MCF7, 24 h, read-out: GI
SW480 [9] = assay: Growth inhibition of human SW480 cells at 10 uM after 24 hrs by MTS assay relative to control; type: functional; details: SW480, 24 h, read-out: GI
HepG2 [10] = assay: Growth inhibition of human HepG2 cells at 10 uM after 24 hrs by MTS assay relative to control; type: functional; details: HepG2, 24 h, read-out: GI
RAW264.7 [11] = assay: Antiinflammatory activity in mouse RAW264.7 cells assessed as inhibition of LPS-induced NO production at 10 uM after 24 hrs by Griess reagent based assay relative to control; type: functional; details: RAW264.7, 24 h
Homo sapiens [12] = species on record: Homo sapiens; assay: Inhibition of LPS-induced NF-kappaB transcription (unknown origin) expressed in human SW480 cells at 10 uM by luciferase reporter gene assay; type: cell-based
[13] = target: T1, Tyrosine-protein phosphatase non-receptor type 1 (Homo sapiens) (UniProt P18031); assay: Inhibition of recombinant human PTP1B using p-nitrophenyl phosphate as substrate at 10 uM after 30 mins relative to control
T1 sequence (whole entry): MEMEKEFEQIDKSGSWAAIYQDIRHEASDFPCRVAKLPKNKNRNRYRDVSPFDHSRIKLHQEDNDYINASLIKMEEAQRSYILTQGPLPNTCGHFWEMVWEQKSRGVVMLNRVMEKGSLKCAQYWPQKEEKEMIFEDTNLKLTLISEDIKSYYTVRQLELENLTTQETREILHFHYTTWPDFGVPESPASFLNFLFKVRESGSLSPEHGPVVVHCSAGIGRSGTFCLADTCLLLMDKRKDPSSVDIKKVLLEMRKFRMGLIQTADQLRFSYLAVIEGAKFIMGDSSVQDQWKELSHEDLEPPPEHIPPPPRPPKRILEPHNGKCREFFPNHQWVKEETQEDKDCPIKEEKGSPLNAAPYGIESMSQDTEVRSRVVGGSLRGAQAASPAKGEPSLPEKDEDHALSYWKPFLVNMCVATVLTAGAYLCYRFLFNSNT

[14] = target: T2, Tyrosine-protein phosphatase non-receptor type 1 (Homo sapiens, UniProt P18031); assay: Inhibition of recombinant human PTP1B using p-nitrophenyl phosphate as substrate after 30 mins
T2 sequence (P18031 whole entry): T1 sequence (whole entry)

[15] = target: Mushroom tyrosinase (Agaricus bisporus) (UniProt O42713+Q00024+C7FF04+C7FF05); assay: Inhibition of mushroom tyrosinase at 10 uM using L-tyrosine as substrate incubated for 15 mins followed by substrate addition relative to control

Compound: CC(C)C[C@@H](C=O)NC(=O)[C@H](CC(C)C)NC(=O)[C@H](CC(C)C)NC(=O)OCc1ccccc1 (Cbz-Leu-Leu-Leu-aldehyde)
inhibition (Homo sapiens [1]): 70%

Compound: COc1cc(/C=C/C(=O)CC(=O)/C=C/c2ccc(O)c(OC)c2)ccc1O [CURCUMIN]
inhibition at 20 µM (RAW264.7 [2]): 70%

inhibition [13]: 96%
IC50 [14]: 0.5 µM
inhibition [15]: 7%
Compound: CC(C)=CCc1c(O)ccc(-c2coc3c(CC=C(C)C)c(O)cc(O)c3c2=O)c1O
inhibition at 24 h, 10 µM [3]: 10%
Activity (HEK-293T): Non-Toxic
inhibition at 24 h, 10 µM [4]: 20%
Activity (L02): Non-Toxic
IC50 (MCF7 [5]): 7.47 µM
IC50 (SW480 [6]): 4.62 µM
IC50 (HepG2 [7]): 5.66 µM
inhibition of growth at 10 µM (MCF7 [8]): 88%
inhibition of growth at 10 µM (SW480 [9]): 98%
inhibition of growth at 10 µM (HepG2 [10]): 80%
inhibition at 10 µM (RAW264.7 [11]): 11%
inhibition (Homo sapiens [12]): 19%
